This passage reports Ki results from US20230295200A1 (REGENTS OF THE UNIVERSITY OF MICHIGAN, priority 2022, published 2023).

The target of one test is T1, STAT6 protein (Homo sapiens, UniProt P42226).
T1 sequence (P42226 1-847): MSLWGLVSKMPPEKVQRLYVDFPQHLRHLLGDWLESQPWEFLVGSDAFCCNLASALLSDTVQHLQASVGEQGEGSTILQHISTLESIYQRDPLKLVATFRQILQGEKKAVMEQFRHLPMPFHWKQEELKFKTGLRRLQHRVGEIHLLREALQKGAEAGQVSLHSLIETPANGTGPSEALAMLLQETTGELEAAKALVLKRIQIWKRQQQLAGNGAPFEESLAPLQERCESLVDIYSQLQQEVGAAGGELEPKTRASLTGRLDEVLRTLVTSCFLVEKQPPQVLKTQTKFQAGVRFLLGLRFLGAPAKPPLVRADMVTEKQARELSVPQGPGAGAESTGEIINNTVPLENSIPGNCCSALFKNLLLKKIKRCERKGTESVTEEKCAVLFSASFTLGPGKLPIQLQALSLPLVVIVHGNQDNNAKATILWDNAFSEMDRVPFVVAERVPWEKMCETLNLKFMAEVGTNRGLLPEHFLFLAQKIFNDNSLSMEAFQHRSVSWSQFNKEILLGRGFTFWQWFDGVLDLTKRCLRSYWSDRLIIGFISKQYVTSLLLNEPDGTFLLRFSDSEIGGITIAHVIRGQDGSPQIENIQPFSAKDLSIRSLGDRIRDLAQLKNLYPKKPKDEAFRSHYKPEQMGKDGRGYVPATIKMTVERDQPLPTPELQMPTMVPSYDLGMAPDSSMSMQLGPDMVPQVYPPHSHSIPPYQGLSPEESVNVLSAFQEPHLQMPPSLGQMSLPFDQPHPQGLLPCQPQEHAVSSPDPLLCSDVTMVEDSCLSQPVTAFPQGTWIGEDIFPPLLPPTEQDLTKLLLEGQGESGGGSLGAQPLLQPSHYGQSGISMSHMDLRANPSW
Put plainly: Fluorescence polarization (FP) binding assay, STAT6. The following applies: FP competition, 5 nM fluorescein-labeled tracer, 200 nM protein, PBS pH7.4; read-out: Binding STAT6. The essentials:
(§1)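 Each well holds 200 nM STAT5 and/or STAT6 with 5 nM fluorescent tracer in PBS pH 7.4 (0.01% BGG, 0.01% Tween-20, 2 mM DTT). Binding reaches equilibrium over 1 h at room temperature after brief shaking, and polarization data are fitted nonlinearly.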
(In fluorescence polarisation assays a small probe gives low polarisation when free and higher when bound to something large.)

Another test deals with T2, STAT5A (Homo sapiens, UniProt P42229).
T2 sequence (P42229 1-794): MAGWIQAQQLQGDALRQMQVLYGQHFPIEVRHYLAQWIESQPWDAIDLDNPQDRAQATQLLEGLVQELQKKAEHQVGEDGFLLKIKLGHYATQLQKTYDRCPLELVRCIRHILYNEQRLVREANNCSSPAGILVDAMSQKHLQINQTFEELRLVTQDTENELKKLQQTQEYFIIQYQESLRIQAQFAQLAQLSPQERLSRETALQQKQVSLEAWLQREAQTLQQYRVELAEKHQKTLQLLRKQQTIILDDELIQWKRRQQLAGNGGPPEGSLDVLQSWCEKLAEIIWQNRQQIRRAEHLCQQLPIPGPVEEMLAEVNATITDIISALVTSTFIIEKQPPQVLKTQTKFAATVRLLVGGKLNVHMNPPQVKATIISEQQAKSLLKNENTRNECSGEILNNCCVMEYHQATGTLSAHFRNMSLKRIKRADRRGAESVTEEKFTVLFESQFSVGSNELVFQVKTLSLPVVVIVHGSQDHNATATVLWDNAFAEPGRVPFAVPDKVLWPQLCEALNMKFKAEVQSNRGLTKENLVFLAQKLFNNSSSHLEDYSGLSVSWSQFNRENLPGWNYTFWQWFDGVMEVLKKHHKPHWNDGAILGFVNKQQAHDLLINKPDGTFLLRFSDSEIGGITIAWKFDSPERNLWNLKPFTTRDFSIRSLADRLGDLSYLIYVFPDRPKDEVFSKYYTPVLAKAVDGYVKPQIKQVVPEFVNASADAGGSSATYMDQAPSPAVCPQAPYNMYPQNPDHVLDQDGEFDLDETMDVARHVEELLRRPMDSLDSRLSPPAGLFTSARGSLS
In words: Fluorescence polarization (FP) binding assay, STAT5A. The note with it: FP competition, 5 nM fluorescein-labeled tracer, 200 nM protein, PBS pH7.4. The gist of the method: as §1

Take `CCCCC(=O)N1CC[C@H]2CCN(C(=O)[C@@H]3CCCN3C(=O)[C@@H](NC(=O)c3cc4cc(C(F)(F)P(=O)(O)O)ccc4s3)C(C)(C)C)[C@H]2C1` [Compound 91, ((2-(((S)-3,3-dimethyl-1-oxo-1-((S)-2-((3aS,7aR)-6-pentanoyloctahydro-1H-pyrrolo[2,3-c]pyridine-1-carbonyl)pyrrolidin-1-yl)butan-2-yl)carbamoyl)benzo[b]thiophen-5-yl)difluoromethyl)phosphonic acid]: the Ki on STAT6 protein and on STAT5A was more than 10 µM in each case.
On to `CC(=O)N1C[C@@H]2CCN(C(=O)[C@@H]3CCCN3C(=O)[C@@H](NC(=O)c3cc4cc(C(F)(F)P(=O)(O)O)ccc4s3)C(C)(C)C)[C@@H]2C1` [Compound 92, ((2-(((S)-1-((S)-2-((3aS,6aS)-5-acetyloctahydropyrrolo[3,4-b]pyrrole-1-carbonyl)pyrrolidin-1-yl)-3,3-dimethyl-1-oxobutan-2-yl)carbamoyl)benzo[b]thiophen-5-yl)difluoromethyl)phosphonic acid], for which the Ki on STAT6 protein and on STAT5A was more than 10 µM throughout.
With `CCCCC(=O)N1C[C@@H]2CCN(C(=O)[C@@H]3CCCN3C(=O)[C@@H](NC(=O)c3cc4cc(C(F)(F)P(=O)(O)O)ccc4s3)C(C)(C)C)[C@@H]2C1` [Compound 93, ((2-(((S)-3,3-dimethyl-1-oxo-1-((S)-2-((3aS,6aS)-5-pentanoyloctahydropyrrolo[3,4-b]pyrrole-1-carbonyl)pyrrolidin-1-yl)butan-2-yl)carbamoyl)benzo[b]thiophen-5-yl)difluoromethyl)phosphonic acid], the Ki on STAT6 protein and at STAT5A was more than 10 µM in each case.
For the compound `CC(C)(C)[C@H](NC(=O)c1cc2cc(C(F)(F)P(=O)(O)O)ccc2s1)C(=O)N1CCC[C@H]1C(=O)N1CC[C@H]2CN(C(=O)c3ccc(F)cc3)C[C@H]21` [Compound 94, (difluoro(2-(((S)-1-((S)-2-((3aS,6aS)-5-(4-fluorobenzoyl)octahydropyrrolo[3,4-b]pyrrole-1-carbonyl)pyrrolidin-1-yl)-3,3-dimethyl-1-oxobutan-2-yl)carbamoyl)benzo[b]thiophen-5-yl)methyl)phosphonic acid], the Ki on STAT6 protein and on STAT5A was more than 10 µM throughout.
On to `CC(=O)N1CC[C@H]2CN(C(=O)[C@@H]3CCCN3C(=O)[C@@H](NC(=O)c3cc4cc(C(F)(F)P(=O)(O)O)ccc4s3)C(C)(C)C)C[C@H]21` [Compound 95, ((2-(((S)-1-((S)-2-((3aS,6aS)-1-acetyloctahydropyrrolo[3,4-b]pyrrole-5-carbonyl)pyrrolidin-1-yl)-3,3-dimethyl-1-oxobutan-2-yl)carbamoyl)benzo[b]thiophen-5-yl)difluoromethyl)phosphonic acid], for which the Ki on STAT6 protein and on STAT5A was more than 10 µM throughout.
In the case of `CCCCC(=O)N1CC[C@H]2CN(C(=O)[C@@H]3CCCN3C(=O)[C@@H](NC(=O)c3cc4cc(C(F)(F)P(=O)(O)O)ccc4s3)C(C)(C)C)C[C@H]21` [Compound 96, ((2-(((S)-3,3-dimethyl-1-oxo-1-((S)-2-((3aS,6aS)-1-pentanoyloctahydropyrrolo[3,4-b]pyrrole-5-carbonyl)pyrrolidin-1-yl)butan-2-yl)carbamoyl)benzo[b]thiophen-5-yl)difluoromethyl)phosphonic acid], the Ki at STAT6 protein and at STAT5A was more than 10 µM in each case.
Regarding `CC(C)(C)[C@H](NC(=O)c1cc2cc(C(F)(F)P(=O)(O)O)ccc2s1)C(=O)N1CCC[C@H]1C(=O)N1C[C@@H]2CCN(C(=O)c3ccc(F)cc3)[C@@H]2C1` [Compound 97, (difluoro(2-(((S)-1-((S)-2-((3aS,6aS)-1-(4-fluorobenzoyl)octahydropyrrolo[3,4-b]pyrrole-5-carbonyl)pyrrolidin-1-yl)-3,3-dimethyl-1-oxobutan-2-yl)carbamoyl)benzo[b]thiophen-5-yl)methyl)phosphonic acid], the Ki on STAT6 protein and at STAT5A was more than 10 µM throughout.
In the case of `CC1(c2ccc(F)cc2)CN(C(=O)[C@@H]2CCCN2C(=O)[C@@H](NC(=O)c2cc3cc(C(F)(F)P(=O)(O)O)ccc3s2)C(C)(C)C)CCO1` (stereo partly drawn) [Compound 100, (difluoro(2-(((2S)-1-((2S)-2-(2-(4-fluorophenyl)-2-methylmorpholine-4-carbonyl)pyrrolidin-1-yl)-3,3-dimethyl-1-oxobutan-2-yl)carbamoyl)benzo[b]thiophen-5-yl)methyl)phosphonic acid], the Ki on STAT6 protein is 1 to 10 µM; on STAT5A, more than 10 µM.
On the same counts, the results for `CC1(c2ccc(Cl)cc2)CN(C(=O)[C@@H]2CCCN2C(=O)[C@@H](NC(=O)c2cc3cc(C(F)(F)P(=O)(O)O)ccc3s2)C(C)(C)C)CCO1` (stereo partly drawn) [Compound 101, ((2-(((2S)-1-((2S)-2-(2-(4-chlorophenyl)-2-methylmorpholine-4-carbonyl)pyrrolidin-1-yl)-3,3-dimethyl-1-oxobutan-2-yl)carbamoyl)benzo[b]thiophen-5-yl)difluoromethyl)phosphonic acid] are 1 to 10 µM and more than 10 µM.
The like results for `CC(C)(C)[C@H](NC(=O)c1cc2cc(C(F)(F)P(=O)(O)O)ccc2s1)C(=O)N1CCC[C@H]1C(=O)N1CCOC(c2ccc(F)cc2)C1` (stereo partly drawn) [Compound 102, (difluoro(2-(((2S)-1-((2S)-2-(2-(4-fluorophenyl)morpholine-4-carbonyl)pyrrolidin-1-yl)-3,3-dimethyl-1-oxobutan-2-yl)carbamoyl)benzo[b]thiophen-5-yl)methyl)phosphonic acid] were, in that order, 0.1 to 1 µM and more than 10 µM.
The like results for `CC(C)(C)[C@H](NC(=O)c1cc2cc(C(F)(F)P(=O)(O)O)ccc2s1)C(=O)N1CCC[C@H]1C(=O)N1CCOC(c2cccc(Cl)c2)C1` (stereo partly drawn) [Compound 103, ((2-(((2S)-1-((2S)-2-(2-(3-chlorophenyl)morpholine-4-carbonyl)pyrrolidin-1-yl)-3,3-dimethyl-1-oxobutan-2-yl)carbamoyl)benzo[b]thiophen-5-yl)difluoromethyl)phosphonic acid] were, in that order, 1 to 10 µM and 1 to 10 µM.
Regarding `CC(C)(C)[C@H](NC(=O)c1cc2cc(C(F)(F)P(=O)(O)O)ccc2s1)C(=O)N1CCC[C@H]1C(=O)N1CCOC(c2cc(F)c(Cl)cc2Cl)C1` (stereo partly drawn) [Compound 104, ((2-(((2S)-1-((2S)-2-(2-(2,4-dichloro-5-fluorophenyl)morpholine-4-carbonyl)pyrrolidin-1-yl)-3,3-dimethyl-1-oxobutan-2-yl)carbamoyl)benzo[b]thiophen-5-yl)difluoromethyl)phosphonic acid], the Ki on STAT6 protein and on STAT5A was 1 to 10 µM in each case.
Take `Cc1ccccc1C1CCCN(C(=O)[C@@H]2CCCN2C(=O)[C@@H](NC(=O)c2cc3cc(C(F)(F)P(=O)(O)O)ccc3s2)C(C)(C)C)C1` (stereo partly drawn) [Compound 105, ((2-(((2S)-3,3-dimethyl-1-oxo-1-((2S)-2-(3-(o-tolyl)piperidine-1-carbonyl)pyrrolidin-1-yl)butan-2-yl)carbamoyl)benzo[b]thiophen-5-yl)difluoromethyl)phosphonic acid]: the results for the Ki at STAT6 protein and at STAT5A were 1 to 10 µM and more than 10 µM, respectively.
